According to patent US20210127673A1, “HERBICIDES” (SYNGENTA PARTICIPATIONS AG, priority 2016, published 2021):

Experiments:
Format in all cases: in vivo
Conditions in all cases: evaluated after 13 days
[1] = system: Echinochloa crus-galli (ECHCG); experiment: Post-emergence herbicidal activity, Echinochloa crus-galli; design: key: 5=total damage to plant; 0=no damage to plant
Procedure, shortened: (§1)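 Each value is a visual damage score from 0 (no effect) to 5 (plant killed), assessed 13 days after a foliar spray applied to 8-day-old plants. The compound was applied in acetone/water 50:50 with 0.5% Tween 20 under controlled glasshouse conditions.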

[2] = system: Alopecurus myosuroides (ALOMY); experiment: Pre-emergence herbicidal activity, Alopecurus myosuroides; design: key: 5=total damage to plant; 0=no damage to plant
Procedure, shortened: (§2)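 Seeds sown in standard soil in pots, grown one day in a glasshouse (24/16 °C day/night, 14 h light, 65% humidity), then sprayed pre-emergence with compound in acetone/water (50:50) containing 0.5% Tween 20. Plants were scored after 13 days on a 0–5 scale (5 = total damage, 0 = none).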

Avena fatua (AVEFA) [3] = experiment: Post-emergence herbicidal activity, Avena fatua
Procedure, shortened: as §1

Setaria faberi (SETFA) [4] = experiment: Post-emergence herbicidal activity, Setaria faberi; design: key: 5=total damage to plant; 0=no damage to plant
Procedure, shortened: as §1

Lolium perenne (LOLPE) [5] = experiment: Post-emergence herbicidal activity, Lolium perenne
Procedure, shortened: as §1

[6] = system: Triticum aestivium (TRZAW); experiment: Post-emergence herbicidal activity, Triticum aestivium; design: key: 5=total damage to plant; 0=no damage to plant
Procedure, shortened: as §1

Lolium perenne (LOLPE) [7] = experiment: Pre-emergence herbicidal activity, Lolium perenne; design: key: 5=total damage to plant; 0=no damage to plant
Procedure, shortened: as §2

Avena fatua (AVEFA) [8] = experiment: Pre-emergence herbicidal activity, Avena fatua; design: key: 5=total damage to plant; 0=no damage to plant
Procedure, shortened: as §2

Setaria faberi (SETFA) [9] = experiment: Pre-emergence herbicidal activity, Setaria faberi; design: key: 5=total damage to plant; 0=no damage to plant
Procedure, shortened: as §2

[10] = system: Triticum aestivium (TRZAW); experiment: Pre-emergence herbicidal activity, Triticum aestivium; design: key: 5=total damage to plant; 0=no damage to plant
Procedure, shortened: as §2

[11] = system: Echinochloa crus-galli (ECHCG); experiment: Pre-emergence herbicidal activity, Echinochloa crus-galli
Procedure, shortened: as §2

[12] = system: Alopecurus myosuroides (ALOMY); experiment: Post-emergence herbicidal activity, Alopecurus myosuroides; design: key: 5=total damage to plant; 0=no damage to plant
Procedure, shortened: as §1

SMILES | Control of ECHCG after post-emergence application (score 0-5) ([1]; 1000 g/ha) | Control of ALOMY after pre-emergence application (score 0-5) ([2]; 1000 g/ha) | Control of AVEFA after post-emergence application (score 0-5) (Avena fatua (AVEFA) [3]; 1000 g/ha) | Control of SETFA after post-emergence application (score 0-5) (Setaria faberi (SETFA) [4]; 1000 g/ha) | Control of LOLPE after post-emergence application (score 0-5) (Lolium perenne (LOLPE) [5]; 1000 g/ha) | Control of TRAZW after post-emergence application (score 0-5) ([6]; 1000 g/ha) | Control of LOLPE after pre-emergence application (score 0-5) (Lolium perenne (LOLPE) [7]; 1000 g/ha) | Control of AVEFA after pre-emergence application (score 0-5) (Avena fatua (AVEFA) [8]; 1000 g/ha) | Control of SETFA after pre-emergence application (score 0-5) (Setaria faberi (SETFA) [9]; 1000 g/ha) | Control of TRAZW after pre-emergence application (score 0-5) ([10]; 1000 g/ha) | Control of ECHCG after pre-emergence application (score 0-5) ([11]; 1000 g/ha) | Control of ALOMY after post-emergence application (score 0-5) ([12]; 1000 g/ha) | other results
CN(C(=O)OC(C)(C)C)c1ccc(-c2cncc(C#N)c2)nc1C(F)(F)F [Compound B4] | 4 | 0 | 2 | 5 | 1 | 2 | 0 | 0 | 4 | 1 | 1 | 1 | –
O=C(Nc1ccc(-c2cncc(F)c2)nc1C(F)(F)F)N1CCOCC1 [Compound B39] | 5 | 0 | 4 | 5 | 3 | 1 | 1 | 3 | 5 | 0 | 4 | 1 | –
O=C(Nc1ccc(-c2cncc(F)c2)nc1C(F)(F)F)N1CC[S+]([O-])C1 (stereo not drawn) [Compound B117, N-[6-(5-fluoro-3-pyridyl)-2-(trifluoromethyl)-3-pyridyl]-1-oxo-1,3-thiazolidine-3-carboxamide] | 5 | 0 | 4 | 5 | 4 | 3 | 1 | 3 | 5 | 0 | 4 | 1 | –
CNC(=O)N(C)c1ccc(-c2cncc(F)c2)nc1C(F)(F)F [Compound B73] | 4 | 0 | 3 | 4 | 2 | 1 | 1 | 0 | 4 | 0 | 2 | 1 | –
O=C1OCCN1c1ccc(-c2cncc(F)c2)nc1C(F)(F)F [Compound B45, 3-[6-(5-fluoro-3-pyridyl)-2-(trifluoromethyl)-3-pyridyl]oxazolidin-2-one] | 4 | 0 | 3 | 4 | 2 | 1 | 0 | 0 | 3 | 0 | 3 | 1 | –
CC(C)(C)OC(=O)Nc1ccc(-c2cncc(C#N)c2)nc1C(F)(F)F [Compound B7] | 4 | 0 | 4 | 5 | 2 | 1 | 1 | 1 | 5 | 0 | 2 | 1 | –
O=C(Nc1ccc(-c2cncc(F)c2)nc1C(F)(F)F)NC1CCCC1 [Compound B50] | 4 | 0 | 3 | 5 | 1 | 0 | 1 | 1 | 4 | 0 | 2 | 0 | –
O=C(Nc1ccc(-c2cncc(F)c2)nc1C(F)(F)F)N1CCCC1 [Compound B63] | 5 | 1 | 2 | 3 | 2 | 0 | 0 | 0 | 2 | 0 | 2 | 0 | –
CC(C)(C)CNC(=O)Nc1ccc(-c2cncc(F)c2)nc1C(F)(F)F [Compound B107] | – | – | – | – | – | – | – | – | – | – | – | – | Control of ECHCG after post-emergence application (score 0-5) ([1]; 250 g/ha): 3; Control of ALOMY after pre-emergence application (score 0-5) ([2]; 250 g/ha): 1; Control of AVEFA after post-emergence application (score 0-5) (Avena fatua (AVEFA) [3]; 250 g/ha): 3; Control of SETFA after post-emergence application (score 0-5) (Setaria faberi (SETFA) [4]; 250 g/ha): 5; Control of LOLPE after post-emergence application (score 0-5) (Lolium perenne (LOLPE) [5]; 250 g/ha): 1; Control of TRAZW after post-emergence application (score 0-5) ([6]; 250 g/ha): 0; Control of LOLPE after pre-emergence application (score 0-5) (Lolium perenne (LOLPE) [7]; 250 g/ha): 3; Control of AVEFA after pre-emergence application (score 0-5) (Avena fatua (AVEFA) [8]; 250 g/ha): 1; Control of SETFA after pre-emergence application (score 0-5) (Setaria faberi (SETFA) [9]; 250 g/ha): 4; Control of TRAZW after pre-emergence application (score 0-5) ([10]; 250 g/ha): 1; Control of ECHCG after pre-emergence application (score 0-5) ([11]; 250 g/ha): 3; Control of ALOMY after post-emergence application (score 0-5) ([12]; 250 g/ha): 0
CSCCCOC(=O)Nc1ccc(-c2cncc(F)c2)nc1C(F)(F)F [Compound B83] | 5 | 0 | 4 | 5 | 3 | 1 | 2 | 2 | 5 | 0 | 4 | 0 | –
